Measurements reported in ChEMBL document CHEMBL4251607, “Antagonists of the adenosine A2A receptor based on a 2-arylbenzoxazole scaffold: Investigation of the C5- and C7-positions to enhance affinity” (Eur J Med Chem, 2018).
pIC50, pKi: −log10 of the molar value. Converted amounts (≈) assume the structure as drawn.

Tests used:
Adenosine receptor A2a [1] = biological target: T1, Adenosine receptor A2a (Homo sapiens, UniProt P29274); assay: Displacement of [3H]-ZM241385 from human adenosine A2A receptor expressed in CHO cell membranes after 1 hr by TopCount microplate scintillation counting method
T1 sequence (P29274 whole entry): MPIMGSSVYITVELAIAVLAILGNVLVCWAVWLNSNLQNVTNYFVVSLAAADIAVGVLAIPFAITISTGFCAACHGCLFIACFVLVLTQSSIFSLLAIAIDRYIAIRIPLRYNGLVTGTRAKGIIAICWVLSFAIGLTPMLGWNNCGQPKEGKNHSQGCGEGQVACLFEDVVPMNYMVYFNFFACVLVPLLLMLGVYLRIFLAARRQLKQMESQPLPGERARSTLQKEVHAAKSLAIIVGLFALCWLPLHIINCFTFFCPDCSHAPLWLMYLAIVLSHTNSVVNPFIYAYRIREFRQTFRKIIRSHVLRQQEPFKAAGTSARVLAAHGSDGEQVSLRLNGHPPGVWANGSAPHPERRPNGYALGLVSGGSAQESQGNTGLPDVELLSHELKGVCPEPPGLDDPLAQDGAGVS

SH-SY5Y [2] = assay: Cytotoxicity against human SH-SY5Y cells assessed as cell death at 10 uM after 72 hrs by MTT assay relative to control; assay type: cell-based
Adenosine receptor A2a [3] = biological target: T1, Adenosine receptor A2a; assay: Displacement of [3H]-ZM241385 from human adenosine A2A receptor expressed in HEK293 cell membranes after 1 hr by scintillation counting method
physchem = details: PBS, pH 7.4
[4] = Half life in human liver microsomes at 0.1 uM
[5] = Apparent permeability from apical to basolateral side in human Caco2 cells at 10 uM after 40 mins; details: Caco-2
[6] = Protein binding in human plasma at 10 uM after 4 hrs
in vitro = details: human
Description: Intrinsic clearance in human liver microsomes at 0.1 uM

Adenosine receptor A2a [7] = biological target: T1, Adenosine receptor A2a; assay: Antagonist activity at human adenosine A2A receptor expressed in HEK293 cell membranes assessed as inhibition of […]-induced [35S]GTPgammaS binding preincubated for 10 mins followed by […] addition by TopCount scintillation counting method; assay type: functional
SH-SY5Y [8] = assay: Cytotoxicity against human SH-SY5Y cells assessed as cell death after 72 hrs by MTT assay; assay type: cell-based
[9] = Apparent permeability from basolateral to apical side in human Caco2 cells at 10 uM after 40 mins; details: Caco-2
Adenosine receptor A2a [10] = biological target: T1, Adenosine receptor A2a; assay: Antagonist activity at adenosine A2A receptor (unknown origin)
[11] = biological target: T2, Adenosine receptor A3 (Homo sapiens) (UniProt P0DMS8); assay: Displacement of [125I]ABMECA from human adenosine A3 receptor expressed in HEK293 cell membranes at 10 uM relative to control
T2 sequence (whole entry): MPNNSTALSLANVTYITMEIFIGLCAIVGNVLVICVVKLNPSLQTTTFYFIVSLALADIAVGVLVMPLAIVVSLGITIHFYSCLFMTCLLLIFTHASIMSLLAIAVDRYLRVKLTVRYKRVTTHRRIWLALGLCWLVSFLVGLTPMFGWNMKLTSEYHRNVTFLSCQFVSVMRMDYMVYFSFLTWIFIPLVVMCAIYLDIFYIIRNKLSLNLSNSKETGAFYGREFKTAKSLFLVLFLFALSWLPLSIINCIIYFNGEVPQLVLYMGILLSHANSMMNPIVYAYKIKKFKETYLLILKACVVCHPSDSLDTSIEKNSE

[12] = biological target: T3, Adenosine receptor A2b (Homo sapiens) (UniProt P29275); assay: Displacement of [3H]CPX from human adenosine A2B receptor expressed in HEK293 cell membranes at 10 uM relative to control
T3 sequence (whole entry): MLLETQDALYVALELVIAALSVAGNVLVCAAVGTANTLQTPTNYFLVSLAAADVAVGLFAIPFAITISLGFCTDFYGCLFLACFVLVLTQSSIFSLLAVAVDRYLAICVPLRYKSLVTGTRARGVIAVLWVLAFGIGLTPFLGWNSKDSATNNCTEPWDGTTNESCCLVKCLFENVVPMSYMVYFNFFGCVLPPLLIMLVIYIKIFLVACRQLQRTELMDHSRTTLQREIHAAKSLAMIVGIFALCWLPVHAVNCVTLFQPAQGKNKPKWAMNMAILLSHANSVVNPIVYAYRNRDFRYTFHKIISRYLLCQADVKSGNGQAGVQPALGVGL

Adenosine receptor A1 = biological target: T4, Adenosine receptor A1 (Homo sapiens, UniProt P30542); assay: Displacement of [3H]DPCPX from human adenosine A1 receptor expressed in CHO cell membranes
T4 sequence (P30542 whole entry): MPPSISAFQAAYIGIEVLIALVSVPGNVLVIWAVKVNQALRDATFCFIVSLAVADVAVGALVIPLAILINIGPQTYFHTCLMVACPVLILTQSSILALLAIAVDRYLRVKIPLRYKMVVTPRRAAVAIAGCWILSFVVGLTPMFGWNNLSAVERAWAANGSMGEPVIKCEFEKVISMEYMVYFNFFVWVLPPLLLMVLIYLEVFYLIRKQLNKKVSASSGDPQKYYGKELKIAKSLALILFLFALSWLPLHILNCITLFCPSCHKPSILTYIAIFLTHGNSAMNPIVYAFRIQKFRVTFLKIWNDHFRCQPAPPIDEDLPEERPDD

Q: With `Nc1cc(-c2ccc(F)cc2)c2oc(-c3ccco3)nc2c1` as the molecule, how does the pKi (Adenosine receptor A2a [1]) read?
A: 6.36

Q: Which Activity (SH-SY5Y [2]) does the source give for `O=C(CN1CCCCC1)Nc1ccc2oc(-c3ccco3)nc2c1` here?
A: 0%

Q: What about the pKi (Adenosine receptor A2a [3]) of the same molecule?
A: 6.00

Q: What about the pKi (Adenosine receptor A2a [1]) of the same molecule?
A: 6.00

Q: With `O=C(CCN1CCc2ccccc2C1)Nc1cc(-c2ccco2)c2oc(-c3ccco3)nc2c1` as the molecule, how does the solubility at 24 h (physchem) read?
A: 8 µM (≈ 3.63 µg/mL)

Q: What about the half-life at 0.1 µM ([4]; liver microsomes) of the same molecule?
A: > 1 h

Q: And the Activity (SH-SY5Y [2])?
A: 37%

Q: What about the Papp A→B at 40 min, 10 µM [5] of the same molecule?
A: 2 nm/s

Q: What about the fraction unbound at 4 h, 10 µM [6] of the same molecule?
A: 0.001

Q: What about the microsomal CLint at 0.1 µM (in vitro; liver microsomes) of the same molecule?
A: < 115 µL/min/mg

Q: And the pKi (Adenosine receptor A2a [1])?
A: 7.52

Q: With `Nc1cc(-c2ccc(C(F)(F)F)cc2)c2oc(-c3ccco3)nc2c1` as the molecule, how does the pKi (Adenosine receptor A2a [1]) read?
A: < 5.00

Q: With `Nc1cc(N2CCOCC2)c2oc(-c3ccco3)nc2c1` as the molecule, how does the pKi (Adenosine receptor A2a [1]) read?
A: < 5.00

Q: With `Cc1ccc(-c2cc(N)cc3nc(-c4ccco4)oc23)cc1` as the molecule, how does the pKi (Adenosine receptor A2a [1]) read?
A: < 5.00

Q: Which results are given for `O=C(CN1CCCCC1)Nc1cc(-c2ccco2)c2oc(-c3ccco3)nc2c1`?
A: pIC50 (Adenosine receptor A2a [7]): 6.31; pKi (Adenosine receptor A2a [1]): 6.68

Q: With `O=C(CCCN1CCCCC1)Nc1cc(-c2ccco2)c2oc(-c3ccco3)nc2c1` as the molecule, how does the pKi (Adenosine receptor A2a [1]) read?
A: 7.01

Q: With `O=C(CCN1CCOCC1)Nc1cc(-c2ccco2)c2oc(-c3ccco3)nc2c1` as the molecule, how does the pIC50 (SH-SY5Y [8]) read?
A: 4.11

Q: And the solubility at 24 h (physchem)?
A: 173 µM (≈ 70.5 µg/mL)

Q: And the half-life at 0.1 µM ([4]; microsomes)?
A: > 1 h

Q: What about the Papp A→B at 40 min, 10 µM [5] of the same molecule?
A: 110 nm/s

Q: What about the Papp B→A at 40 min, 10 µM [9] of the same molecule?
A: 16 nm/s

Q: What about the fraction unbound at 4 h, 10 µM [6] of the same molecule?
A: 0.02

Q: And the microsomal CLint at 0.1 µM (in vitro; microsomes)?
A: < 115 µL/min/mg

Q: And the pKi (Adenosine receptor A2a [1])?
A: 7.05

Q: With `COCCOc1ccc(N2CCN(CCn3ncc4c3nc(N)n3nc(-c5ccco5)nc43)CC2)cc1` [PRELADENANT] as the molecule, how does the pKi (Adenosine receptor A2a [10]) read?
A: 9.30

Q: With `COc1ccc(-c2cc(N)cc3nc(-c4ccco4)oc23)cc1OC` as the molecule, how does the pKi (Adenosine receptor A2a [1]) read?
A: 7.05

Q: With `Nc1cc(-c2cccs2)c2oc(-c3ccco3)nc2c1` as the molecule, how does the pKi (Adenosine receptor A2a [1]) read?
A: 7.15

Q: With `Nc1cc(-c2ccccn2)c2oc(-c3ccco3)nc2c1` as the molecule, how does the pKi (Adenosine receptor A2a [1]) read?
A: 6.87

Q: What does the source list for `Nc1cc(NC(=O)CN2CCCCC2)cc2nc(-c3ccco3)oc12`?
A: pIC50 (Adenosine receptor A2a [7]): 6.60; pKi (Adenosine receptor A2a [1]): 6.32

Q: With `Nc1ccc2oc(-c3ccco3)nc2c1` as the molecule, how does the pKi (Adenosine receptor A2a [3]) read?
A: 5.00

Q: What about the pKi (Adenosine receptor A2a [1]) of the same molecule?
A: 5.00

Q: With `COc1ccc(-c2cc(NC(=O)CCN3CCc4ccccc4C3)cc3nc(-c4ccco4)oc23)cc1OC` as the molecule, how does the pKi (Adenosine receptor A2a [1]) read?
A: < 5.00

Q: With `Nc1cc(-c2ccco2)c2oc(-c3ccco3)nc2c1` as the molecule, how does the inhibition [11] read?
A: 90%

Q: What about the inhibition [12] of the same molecule?
A: 94%

Q: What about the pKi (Adenosine receptor A1) of the same molecule?
A: 8.11

Q: And the pIC50 (Adenosine receptor A2a [7])?
A: 7.15

Q: And the pIC50 (SH-SY5Y [8])?
A: 4.40

Q: What about the solubility at 24 h (physchem) of the same molecule?
A: 31 µM (≈ 8.25 µg/mL)

Q: What about the half-life at 0.1 µM ([4]; liver microsomes) of the same molecule?
A: > 1 h

Q: And the Papp A→B at 40 min, 10 µM [5]?
A: 770 nm/s

Q: What about the Papp B→A at 40 min, 10 µM [9] of the same molecule?
A: 370 nm/s

Q: And the fraction unbound at 4 h, 10 µM [6]?
A: 0.1

Q: What about the microsomal CLint at 0.1 µM (in vitro; liver microsomes) of the same molecule?
A: < 115 µL/min/mg

Q: And the pKi (Adenosine receptor A2a [1])?
A: 7.40

Q: With `O=C(CCN1CCCCC1)Nc1cc(-c2ccco2)c2oc(-c3ccco3)nc2c1` as the molecule, how does the pIC50 (SH-SY5Y [8]) read?
A: 5.05

Q: And the solubility at 24 h (physchem)?
A: 165 µM (≈ 66.9 µg/mL)

Q: And the half-life at 0.1 µM ([4]; liver microsomes)?
A: 0.683 h

Q: And the Papp A→B at 40 min, 10 µM [5]?
A: 23 nm/s

Q: And the Papp B→A at 40 min, 10 µM [9]?
A: 12 nm/s

Q: And the fraction unbound at 4 h, 10 µM [6]?
A: 0.02

Q: And the microsomal CLint at 0.1 µM (in vitro; liver microsomes)?
A: 172 µL/min/mg

Q: And the pKi (Adenosine receptor A2a [1])?
A: 7.09

Q: With `CCOCCOc1ccc(N2CCN(CCC(=O)Nc3cc(-c4ccco4)c4oc(-c5ccco5)nc4c3)CC2)cc1` as the molecule, how does the pKi (Adenosine receptor A2a [1]) read?
A: < 5.00

Q: With `Nc1cc(NC(=O)CN2CCCCC2)c2oc(-c3ccco3)nc2c1` as the molecule, how does the pKi (Adenosine receptor A2a [1]) read?
A: < 5.00

Q: With `Nc1cc(-c2ccccc2)c2oc(-c3ccco3)nc2c1` as the molecule, how does the pKi (Adenosine receptor A2a [1]) read?
A: 6.69
